Results reported in PubChem BioAssay (NCI).
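Values below derive from 48-hour exposures of cells grown in 96-well plates, with endpoints linearly interpolated between the two concentrations bracketing the appropriate inhibition level. Here, GI50 denotes the concentration required for 50% inhibition of growth. At the TGI there is no net growth.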

Legend:
Assay in all cases: inhibition of tumour cell growth, NCI panel, 48 h
OVCAR-5 ovarian = system: OVCAR-5 ovarian
HS 578T breast = system: HS 578T breast
BT-549 breast = system: BT-549 breast
NCI-H460 lung = system: NCI-H460 lung
HCT-116 colon = system: HCT-116 colon
OVCAR-8 ovarian = system: OVCAR-8 ovarian
786-0 renal = system: 786-0 renal
NCI-H226 lung = system: NCI-H226 lung
UACC-257 melanoma = system: UACC-257 melanoma
SK-MEL-2 melanoma = system: SK-MEL-2 melanoma
HOP-92 NSCLC = system: HOP-92 NSCLC
UO-31 renal = system: UO-31 renal
HCT-15 colon = system: HCT-15 colon
COLO 205 colon = system: COLO 205 colon
HL-60(TB) leukemia = system: HL-60(TB) leukemia
PC-3 prostate = system: PC-3 prostate
NCI-H522 lung = system: NCI-H522 lung
SNB-19 CNS = system: SNB-19 CNS
MDA-MB-231 breast = system: MDA-MB-231 breast
U251 CNS = system: U251 CNS
LOX IMVI melanoma = system: LOX IMVI melanoma
DU-145 prostate = system: DU-145 prostate
SK-MEL-28 melanoma = system: SK-MEL-28 melanoma
UACC-62 melanoma = system: UACC-62 melanoma
OVCAR-3 ovarian = system: OVCAR-3 ovarian
TK-10 renal = system: TK-10 renal
RPMI-8226 leukemia = system: RPMI-8226 leukemia
A498 renal = system: A498 renal
M14 melanoma = system: M14 melanoma
KM12 colon = system: KM12 colon

`COc1cccc(/C=C/c2nc3ccccc3c(=O)n2CC(=O)Nc2ccccc2)c1` gave a TGI (OVCAR-5 ovarian) of over 100 µM, a GI50 (HS 578T breast) of 5.91 µM and a TGI (HS 578T breast) of over 100 µM. The GI50 (BT-549 breast) was over 100 µM, the TGI (BT-549 breast) was over 100 µM and the GI50 (NCI-H460 lung) was 12.6 µM. For the same molecule, the TGI (NCI-H460 lung) was over 100 µM, the GI50 (HCT-116 colon) was 5.48 µM and the TGI (HCT-116 colon) was 56 µM. For the same molecule, the GI50 (OVCAR-8 ovarian) was 18.8 µM, the TGI (OVCAR-8 ovarian) was over 100 µM and the GI50 (786-0 renal) was 3.08 µM. For the same molecule, the TGI (786-0 renal) was 12.6 µM, the GI50 (NCI-H226 lung) was 3.22 µM and the TGI (NCI-H226 lung) was 15.2 µM. It also gave a GI50 (UACC-257 melanoma) of over 100 µM, a TGI (UACC-257 melanoma) of over 100 µM and a GI50 (SK-MEL-2 melanoma) of over 100 µM. The TGI (SK-MEL-2 melanoma) was over 100 µM, the GI50 (HOP-92 NSCLC) was 11 µM and the TGI (HOP-92 NSCLC) was 51.3 µM. For the same molecule, the GI50 (UO-31 renal) was 2.89 µM, the TGI (UO-31 renal) was 14.1 µM and the GI50 (HCT-15 colon) was 39.9 µM. It also gave a TGI (HCT-15 colon) of over 100 µM, a GI50 (COLO 205 colon) of over 100 µM and a TGI (COLO 205 colon) of over 100 µM. It also gave a GI50 (HL-60(TB) leukemia) of over 100 µM, a TGI (HL-60(TB) leukemia) of over 100 µM and a GI50 (PC-3 prostate) of over 100 µM. For the same molecule, the TGI (PC-3 prostate) was over 100 µM, the GI50 (NCI-H522 lung) was 31.6 µM and the TGI (NCI-H522 lung) was over 100 µM. For the same molecule, the GI50 (SNB-19 CNS) was 21.7 µM, the TGI (SNB-19 CNS) was over 100 µM and the GI50 (MDA-MB-231 breast) was 5.97 µM. The TGI (MDA-MB-231 breast) was 20.7 µM, the GI50 (U251 CNS) was 4.87 µM and the TGI (U251 CNS) was 19 µM. It also gave a GI50 (LOX IMVI melanoma) of 5.94 µM, a TGI (LOX IMVI melanoma) of over 100 µM and a GI50 (DU-145 prostate) of over 100 µM. For the same molecule, the TGI (DU-145 prostate) was over 100 µM, the GI50 (SK-MEL-28 melanoma) was 61.4 µM and the TGI (SK-MEL-28 melanoma) was over 100 µM. For the same molecule, the GI50 (UACC-62 melanoma) was 88.5 µM, the TGI (UACC-62 melanoma) was over 100 µM and the GI50 (OVCAR-3 ovarian) was 17.6 µM. It also gave a TGI (OVCAR-3 ovarian) of over 100 µM, a GI50 (TK-10 renal) of 9.51 µM and a TGI (TK-10 renal) of 30 µM. It also gave a GI50 (RPMI-8226 leukemia) of over 100 µM, a TGI (RPMI-8226 leukemia) of over 100 µM and a GI50 (A498 renal) of 3.2 µM. It also gave a TGI (A498 renal) of 14.5 µM, a GI50 (M14 melanoma) of 12.5 µM and a TGI (M14 melanoma) of 56.6 µM. The GI50 (KM12 colon) was over 100 µM and the TGI (KM12 colon) was over 100 µM.
